Calls of active or inactive are those of the source. No cut-off for these calls is given here.

Data set [1] deals with RAW264.7. Briefly: Cytotoxicity against LPS-induced mouse RAW264.7 cells assessed as reduction in cell viability at 20 uM incubated for 24 hrs by MTT assay. The format is toxicity, cell-based. The settings on record: raw264.7, 24 h. In general terms: Tetrazolium dyes change colour on reduction, which living cells bring about.
Data set [2] has as its system RAW264.7. As to the kind of experiment: Antiinflammatory activity in LPS-induced mouse RAW264.7 cells assessed as inhibition of NO production at 20 uM measured after 24 hrs by Griess reagent based assay. Format: functional, cell-based. On the technique in general: Griess reagent forms a coloured azo dye with nitrite.
Data set [3] relates to RAW264.7. Briefly: Antiinflammatory activity in LPS-induced mouse RAW264.7 cells assessed as inhibition of NLRP3 protein expression at 20 uM measured after 24 hrs by Western blot analysis. Format: functional, cell-based. On the technique in general: Immunoblotting shows a protein as a band on a membrane.
Data set [4] relates to RAW264.7. As to the kind of experiment: Antiinflammatory activity in LPS-induced mouse RAW264.7 cells assessed as reduction in iNOS protein expression at 20 uM measured after 24 hrs by Western blot analysis. Format: functional, cell-based.
The test system of data set [5] is RAW264.7. Briefly: Antiinflammatory activity in LPS-induced mouse RAW264.7 cells assessed as inhibition of NO production measured after 24 hrs by Griess reagent based analysis. The format is functional, cell-based. The settings on record: dose 0.1-20 µM.

For the molecule `CC[C@H](C)[C@H]1NC(=O)CNC(=O)[C@H](Cc2ccccc2)NC(=O)c2cccc(O)c2NC(=O)[C@H]([C@H](C)c2ccc(OC)cc2)NC1=O`, the Activity entry in the data set on RAW264.7 [1] is reported as “Non-Toxic”. In addition, the result with RAW264.7 [2] was Active.
Consider `COc1ccc([C@@H](C)[C@@H]2NC(=O)[C@@H](CC(C)C)NC(=O)CNC(=O)[C@H](CCC(C)C)NC(=O)c3cccc(O)c3NC2=O)cc1`, for which the Activity entry in the data set on RAW264.7 [1] is on record as “Non-Toxic”. For the same molecule, in the data set with RAW264.7 [2], the outcome was Active.
As to `CC[C@@H](C)[C@H]1NC(=O)CNC(=O)[C@H](CC(C)C)NC(=O)c2cccc(O)c2NC(=O)[C@H]([C@H](C)c2ccc(OC)cc2)NC1=O`, the Activity entry with RAW264.7 [1] is “Non-Toxic”. Also, the outcome in the data set with RAW264.7 [2] was Active.
For the molecule `COc1ccc([C@@H](C)[C@@H]2NC(=O)[C@@H](CC(C)C)NC(=O)CNC(=O)[C@@H](Cc3ccccc3)NC(=O)c3cccc(O)c3NC2=O)cc1`, the results for the Activity result with RAW264.7 [1] and with RAW264.7 [5] were “Non-Toxic” and “Dose-Dependent Effect”, respectively. Further, the outcome with RAW264.7 [3], in the data set with RAW264.7 [4] and with RAW264.7 [2] was Active.
With `COc1ccc([C@@H](C)[C@@H]2NC(=O)[C@@H](C(C)C)NC(=O)CNC(=O)[C@H](CCC(C)C)NC(=O)c3cccc(O)c3NC2=O)cc1`, in the data set on RAW264.7 [1], the Activity entry is “Non-Toxic”. Besides, the result in the data set with RAW264.7 [2] was Active.
On the same counts, the results for `CC[C@H](C)[C@H]1NC(=O)CNC(=O)[C@H](CCC(C)C)NC(=O)c2cccc(O)c2NC(=O)[C@H]([C@H](C)c2ccc(OC)cc2)NC1=O` are “Non-Toxic” and “Active”.
On the same counts, the results for `COc1ccc([C@@H](C)[C@@H]2NC(=O)[C@@H](C(C)C)NC(=O)CNC(=O)[C@H](Cc3ccccc3)NC(=O)c3cccc(O)c3NC2=O)cc1` are “Non-Toxic” and “Active”.

For the origin of these results see ChEMBL document CHEMBL5370563, “Molecular Networking-Guided Isolation of Cyclopentapeptides from the Hydrothermal Vent Sediment Derived Fungus Aspergillus pseudoviridinutans TW58-5 and Their Anti-inflammatory Effects” (J Nat Prod, 2023).
